Reference: ChEMBL document CHEMBL5512655, “Discovery of indolylacryloyl-derived oxacins as novel potential broad-spectrum antibacterial candidates” (Eur J Med Chem, 2024)
In brackets after ≈: the same amount, converted by molar mass. Activity calls are given as the source filed them. The rule behind the calls is not given here.

Assays:
Escherichia coli [1] = test: Antibacterial activity against Escherichia coli assessed as resistance development measured after 11 generations; format: functional, organism-based
Escherichia coli [2] = test: Induction of lipid peroxidation in Escherichia coli assessed as malondialdehyde (MDA) level production; format: functional, organism-based
Staphylococcus aureus [3] = test: Antibacterial activity against Staphylococcus aureus assessed as inhibition of bacterial growth measured after 24 hrs incubation; format: functional
Staphylococcus aureus [4] = test: Antibacterial activity against methicillin-resistant Staphylococcus aureus N315 assessed as inhibition of bacterial growth measured after 24 hrs incubation; format: functional
Staphylococcus aureus [5] = test: Antibacterial activity against methicillin-resistant Staphylococcus aureus N315 assessed as resistance development measured after 10 generations; format: functional, organism-based
Cell membrane [6] = test: Induction of cell membrane damage in methicillin-resistant Staphylococcus aureus N315 assessed as increase in density of red fluorescence at 4 times of MIC by Calcein-AM/PI dual staining based fluorescence microscopy; format: cell membranes
Staphylococcus aureus [7] = test: Antibacterial activity against methicillin-resistant Staphylococcus aureus N315 assessed as reduction in bacterial burden at 2 to 4 times of MIC measured within 5 hrs by time-dependent kinetics assay; format: functional, organism-based
Escherichia coli [8] = test: Reduction in metabolic activity in Escherichia coli by Alamar Blue assay; format: functional, organism-based
Staphylococcus aureus [9] = test: Anti-biofilm effect in methicillin-resistant Staphylococcus aureus N315 assessed as biofilm destruction rate at 6 times of MIC; format: functional
Calf thymus DNA [10] = test: Binding affinity to calf thymus DNA by acridine orange staining based competitive binding assay; format: nucleic-acid assay; conditions: Bos taurus
Escherichia coli [11] = test: Induction of lipid peroxidation in Escherichia coli assessed as malondialdehyde (MDA) level production at 4 time of MIC; format: functional, organism-based
Escherichia coli [12] = test: Anti-biofilm effect in Escherichia coli assessed as biofilm destruction rate at 6 times of MIC; format: functional
Staphylococcus aureus [13] = test: Antibacterial activity against methicillin-resistant Staphylococcus aureus N315 assessed as resistance development measured after 18 generations; format: functional, organism-based
Cell membrane [14] = test: Induction of cytoplasmic membrane integrity loss in methicillin-resistant Staphylococcus aureus N315 assessed as increase in fluorescence intensity at MIC by Propidium iodide method (reference value: 554); format: cell membranes
Staphylococcus aureus [15] = test: Reduction in metabolic activity in methicillin-resistant Staphylococcus aureus N315 by Alamar Blue assay; format: functional, organism-based
Staphylococcus aureus [16] = test: Induction of lipid peroxidation in methicillin-resistant Staphylococcus aureus N315 assessed as malondialdehyde (MDA) level production; format: functional, organism-based
Escherichia coli [17] = test: Reduction in metabolic activity in Escherichia coli at 6 times of MIC by Alamar Blue assay relative to control; format: functional; design: scale not given: the % may be the effect or the level left
Cell membrane [18] = test: Induction of cell membrane damage in Escherichia coli assessed as increase in density of red fluorescence at 4 times of MIC by Calcein-AM/PI dual staining based fluorescence microscopy; format: cell membranes
Klebsiella pneumoniae = test: Antibacterial activity against Klebsiella pneumonia assessed as inhibition of bacterial growth measured after 24 hrs incubation; format: functional
[19] = Hemolytic activity in human red blood cells assessed as hemolysis rate at 512 ug/ml relative to control; format: toxicity, cell-based, Erythrocyte; conditions: red blood cells (erythrocytes), at 512 µg/mL, read-out: Activity
Staphylococcus aureus [20] = test: Anti-biofilm effect in methicillin-resistant Staphylococcus aureus N315 assessed as biofilm destruction by measuring eradication rate at MIC; format: functional
Enterococcus faecalis = test: Antibacterial activity against Enterococcus faecalis assessed as inhibition of bacterial growth measured after 24 hrs incubation; format: functional
Pseudomonas aeruginosa [21] = test: Antibacterial activity against Pseudomonas aeruginosa ATCC 27853 assessed as inhibition of bacterial growth measured after 24 hrs incubation; format: functional
Staphylococcus aureus [22] = test: Anti-biofilm effect in methicillin-resistant Staphylococcus aureus N315 assessed as inhibition of biofilm formation by measuring reduction in exo-polysaccharide content at 6 times of MIC relative to control; format: functional
Calf thymus DNA [23] = test: Binding affinity to calf thymus DNA assessed as hypochromism by spectroscopic analysis; format: nucleic-acid assay; conditions: Bos taurus
Staphylococcus aureus [24] = test: Antibacterial activity against methicillin-resistant Staphylococcus aureus N315 assessed as resistance development by measuring compound concentration required to inhibit measured after 18 generations; format: functional
Staphylococcus aureus [25] = test: Antibacterial activity against Staphylococcus aureus ATCC 25923 assessed as inhibition of bacterial growth measured after 24 hrs incubation; format: functional
Escherichia coli [26] = test: Induction of ROS production in Escherichia coli assessed as fluorescence intensity at 2 times of MIC by DCFH-DA (dichlorofluorescin diacetate) probe based assay; format: functional
Escherichia coli [27] = test: Induction of ROS production in Escherichia coli assessed as fluorescence intensity by DCFH-DA (dichlorofluorescin diacetate) probe based assay; format: functional, organism-based
Calf thymus DNA [28] = test: Binding affinity to calf thymus DNA assessed as DNA intercalation with drug by […] assay; format: nucleic-acid assay; conditions: Bos taurus
Staphylococcus aureus [29] = test: Induction of ROS production in methicillin-resistant Staphylococcus aureus N315 assessed as fluorescence intensity at 2 times of MIC by DCFH-DA (dichlorofluorescin diacetate) probe based assay
Escherichia coli [30] = test: Antibacterial activity against Escherichia coli assessed as inhibition of bacterial growth measured after 24 hrs incubation; format: functional
Staphylococcus aureus [31] = test: Antibacterial activity against Staphylococcus aureus ATCC 29213 assessed as inhibition of bacterial growth measured after 24 hrs incubation; format: functional
Staphylococcus aureus [32] = test: Antibacterial activity against methicillin-resistant Staphylococcus aureus N315 assessed as reduction in bacterial burden at 2 to 4 times of MIC measured upto 7 hrs by time-dependent kinetics assay; format: functional, organism-based
Staphylococcus aureus [33] = test: Induction of lipid peroxidation in methicillin-resistant Staphylococcus aureus N315 assessed as malondialdehyde (MDA) level production at 4 time of MIC; format: functional, organism-based
Escherichia coli [34] = test: Antibacterial activity against Escherichia coli assessed as reduction in bacterial burden at 2 to 4 times of MIC measured upto 7 hrs by time-dependent kinetics assay; format: functional, organism-based
Staphylococcus aureus [35] = test: Reduction in metabolic activity in methicillin-resistant Staphylococcus aureus N315 at 6 times of MIC by Alamar Blue assay relative to control; format: functional; design: scale not given: the % may be the effect or the level left
Escherichia coli [36] = test: Antibacterial activity against Escherichia coli assessed as reduction in bacterial burden at 2 to 4 times of MIC measured within 5 hrs by time-dependent kinetics assay; format: functional, organism-based
Escherichia coli [37] = test: Anti-biofilm effect in Escherichia coli assessed as biofilm destruction by measuring eradication rate at MIC; format: functional
[38] = Hemolytic activity in human red blood cells assessed as hemolysis rate at 64 ug/ml relative to control; format: toxicity, cell-based, Erythrocyte; conditions: red blood cells (erythrocytes), at 64 µg/mL, read-out: Activity
Escherichia coli [39] = test: Antibacterial activity against Escherichia coli assessed as resistance development by measuring compound concentration required to inhibit measured after 18 generations; format: functional
Escherichia coli [40] = test: Antibacterial activity against Escherichia coli ATCC 25922 assessed as inhibition of bacterial growth measured after 24 hrs incubation; format: functional
Pseudomonas aeruginosa [41] = test: Antibacterial activity against Pseudomonas aeruginosa assessed as inhibition of bacterial growth measured after 24 hrs incubation; format: functional
Escherichia coli [42] = test: Anti-biofilm effect in Escherichia coli assessed as inhibition of biofilm formation by measuring reduction in exo-polysaccharide content at 6 times of MIC relative to control; format: functional
Acinetobacter baumannii = test: Antibacterial activity against Acinetobacter baumannii assessed as inhibition of bacterial growth measured after 24 hrs incubation; format: functional
Escherichia coli [43] = test: Antibacterial activity against Escherichia coli assessed as resistance development measured after 18 generations; format: functional, organism-based
Escherichia coli [44] = test: Potency index, ratio of norfloxacin MIC to test compound MIC for antibacterial activity against Escherichia coli assessed as inhibition of bacterial growth measured after 24 hrs incubation; format: functional
Escherichia coli [45] = test: Potency index, ratio of norfloxacin MIC to test compound MIC for antibacterial activity against Escherichia coli ATCC 25922 assessed as inhibition of bacterial growth measured after 24 hrs incubation; format: functional

Q: What does the source list for `CCn1cc(C(=O)O)c(=O)c2cc(F)c(N3CCN(C(=O)/C(C#N)=C/c4cn(CCO)c5ccccc45)CC3)cc21`?
A: Activity (Escherichia coli [1]): inactive; Activity (Escherichia coli [2]): Dose-Dependent Effect; MIC (Staphylococcus aureus [3]): 0.25 µg/mL (≈ 0.448 µM); MIC (Staphylococcus aureus [4]): 0.25 µg/mL (≈ 0.448 µM); Activity (Staphylococcus aureus [5]): inactive; Activity (Cell membrane [6]): Active; Activity (Staphylococcus aureus [7]): Active; Activity (Escherichia coli [8]): Dose-Dependent Effect; inhibition (INH) (Staphylococcus aureus [9]): >60%; Activity (Calf thymus DNA [10]): Active; Activity (Escherichia coli [11]): Active; inhibition (INH) (Escherichia coli [12]): >60%; Activity (Staphylococcus aureus [13]): Active; Flu intensity (Cell membrane [14]): 1250; Activity (Staphylococcus aureus [15]): Dose-Dependent Effect; Activity (Staphylococcus aureus [16]): Dose-Dependent Effect; Activity (Escherichia coli [17]): >50%; Activity (Cell membrane [18]): Active; MIC (Klebsiella pneumoniae): 0.25 µg/mL (≈ 0.448 µM); hemolysis at 512 ug/ml [19]: < 1.8%; inhibition (INH) (Staphylococcus aureus [20]): 22.1%; MIC (Enterococcus faecalis): 0.25 µg/mL (≈ 0.448 µM); MIC (Pseudomonas aeruginosa [21]): 0.5 µg/mL (≈ 0.897 µM); inhibition (INH) (Staphylococcus aureus [22]): <50%; Activity (Calf thymus DNA [23]): Active; MIC (Staphylococcus aureus [24]): 64 µg/mL (≈ 115 µM); MIC (Staphylococcus aureus [25]): 0.25 µg/mL (≈ 0.448 µM); Activity (Escherichia coli [26]): >50%; Activity (Escherichia coli [27]): Dose-Dependent Effect; Activity (Calf thymus DNA [28]): Active; Activity (Staphylococcus aureus [29]): >50%; MIC (Escherichia coli [30]): 0.25 µg/mL (≈ 0.448 µM); MIC (Staphylococcus aureus [31]): 0.25 µg/mL (≈ 0.448 µM); Activity (Staphylococcus aureus [32]): Active; Activity (Staphylococcus aureus [33]): Active; Activity (Escherichia coli [34]): Active; Activity (Staphylococcus aureus [35]): >50%; Activity (Escherichia coli [36]): Active; inhibition (INH) (Escherichia coli [37]): 40.3%; hemolysis at 64 ug/ml [38]: < 1.8%; MIC (Escherichia coli [39]): 32 µg/mL (≈ 57.4 µM); MIC (Escherichia coli [40]): 0.5 µg/mL (≈ 0.897 µM); MIC (Pseudomonas aeruginosa [41]): 1 µg/mL (≈ 1.79 µM); inhibition (INH) (Escherichia coli [42]): <50%; MIC (Acinetobacter baumannii): 0.5 µg/mL (≈ 0.897 µM); Activity (Escherichia coli [43]): Active

Q: With `CCCCn1cc(C(=O)O)c(=O)c2cc(F)c(N3CCN(C(=O)/C(C#N)=C/c4cn(CC(=O)OCC)c5ccccc45)CC3)cc21` as the compound, how does the MIC (Staphylococcus aureus [3]) read?
A: 1 µg/mL (≈ 1.59 µM)

Q: What about the MIC (Staphylococcus aureus [4]) of the same compound?
A: 2 µg/mL (≈ 3.19 µM)

Q: What about the MIC (Klebsiella pneumoniae) of the same compound?
A: 16 µg/mL (≈ 25.5 µM)

Q: What about the MIC (Enterococcus faecalis) of the same compound?
A: 1 µg/mL (≈ 1.59 µM)

Q: What about the MIC (Pseudomonas aeruginosa [21]) of the same compound?
A: 1 µg/mL (≈ 1.59 µM)

Q: And the Ratio (Escherichia coli [44])?
A: 8

Q: What about the MIC (Staphylococcus aureus [25]) of the same compound?
A: 4 µg/mL (≈ 6.37 µM)

Q: What about the Ratio (Escherichia coli [45]) of the same compound?
A: 2

Q: What about the MIC (Escherichia coli [30]) of the same compound?
A: 0.25 µg/mL (≈ 0.398 µM)

Q: What about the MIC (Staphylococcus aureus [31]) of the same compound?
A: 1 µg/mL (≈ 1.59 µM)

Q: And the MIC (Escherichia coli [40])?
A: 0.25 µg/mL (≈ 0.398 µM)

Q: And the MIC (Pseudomonas aeruginosa [41])?
A: 4 µg/mL (≈ 6.37 µM)

Q: What about the MIC (Acinetobacter baumannii) of the same compound?
A: 0.5 µg/mL (≈ 0.797 µM)
